With `C[Se](=O)(=O)c1ccc(-c2cnn(-c3ccc(F)cc3)c(=O)c2-c2ccc(F)cc2)cc1`, the melting point lay within 110 to 150 °C.

`CS(=O)(=O)c1ccc(-c2cn[nH]c(=O)c2-c2ccc(F)cc2)cc1` [Example 11, 4-(4-Fluorophenyl)-5-[4-(methylsulfonyl)phenyl]-3(2H)-pyridazinone] showed a melting point of 255 to 256 °C.

Compound `CS(=O)(=O)c1ccc(-c2cnn(Cc3ccccn3)c(=O)c2-c2ccc(F)cc2)cc1` [Example 27, 2-(2-Pyridylmethyl)-4-(4-fluorophenyl)-5-[4-(methylsulfonyl)phenyl]-3(2H)-pyridazinone] registered a melting point of 182 to 184 °C.

Take `CS(=O)(=O)c1ccc(-c2cnn(Cc3ccncc3)c(=O)c2-c2ccc(F)cc2)cc1` [Example 28, 2-(4-Pyridylmethyl)-4-(4-fluorophenyl)-5-[4-(methylsulfonyl)phenyl]-3(2H)-pyridazinone]: the melting point was in the range of 153 to 156 °C.

`CS(=O)(=O)c1ccc(-c2cnn(Cc3cccnc3)c(=O)c2-c2ccc(F)cc2)cc1` [Example 29, 2-(3-Pyridylmethyl)-4-(4-fluorophenyl)-5-[4-(methylsulfonyl)phenyl]-3(2H)-pyridazinone] gave a melting point of 160 to 161 °C.

Take `CS(=O)(=O)c1ccc(-c2cnn(Cc3ccc4cc(F)ccc4n3)c(=O)c2-c2ccc(F)cc2)cc1` [Example 30, 2-(6-Fluoroquinolin-2-ylmethyl)-4-(4-fluorophenyl)-5-[4-(methylsulfonyl)phenyl]-3(2H)-pyridazinone]: the melting point is 116 to 119 °C.

For `CCN(CC)c1ccc(C(=O)Cn2ncc(-c3ccc(S(C)(=O)=O)cc3)c(-c3ccc(F)cc3)c2=O)cc1` [Example 44, 2-(4-Diethylaminophenacyl)-4-(4-fluorophenyl)-5-[4-(methylsulfonyl)phenyl]-3(2H)-pyridazinone], the melting point lay in the range of 105 to 108 °C.

Regarding `CS(=O)(=O)c1ccc(-c2cnn(CC(=O)c3ccc(Cl)cc3)c(=O)c2-c2ccc(F)cc2)cc1` [Example 47, 2-(4-Chlorophenacyl)-4-(4-fluorophenyl)-5-[4-(methylsulfonyl)phenyl]-3(2H)-pyridazinone], the melting point fell in the range of 186 to 188 °C.

`CS(=O)(=O)c1ccc(-c2cnn(CC(=O)c3ccc(C#N)cc3)c(=O)c2-c2ccc(F)cc2)cc1` [Example 49, 2-(4-Cyanophenacyl)-4-(4-fluorophenyl)-5-[4-(methylsulfonyl)phenyl]-3(2H)-pyridazinone] came in with a melting point of 188 to 189 °C.

As for `CS(=O)(=O)c1ccc(-c2cnn(CCc3ccccc3)c(=O)c2-c2ccc(F)cc2)cc1` [Example 51, 2-Phenethyl-4-(4-fluorophenyl)-5-[4-(methylsulfonyl)phenyl]-3(2H)-pyridazinone], the melting point lay within 170 to 171 °C.

`CS(=O)(=O)c1ccc(-c2cnn(CC(=O)c3ccc(OC(F)(F)F)cc3)c(=O)c2-c2ccc(F)cc2)cc1` [Example 55, 2-(4-Trifluoromethoxyphenacyl)-4-(4-fluorophenyl)-5-[4-(methylsulfonyl)phenyl]-3(2H)-pyridazinone] returned a melting point of 160 to 161 °C.

As to `CS(=O)(=O)c1ccc(-c2cnn(CC(=O)c3csc4ccccc34)c(=O)c2-c2ccc(F)cc2)cc1` [Example 57, 2-[2-(Benzo[b]thien-3-yl)-2-oxoethyl]-4-(4-fluorophenyl)-5-[4-(methylsulfonyl)phenyl]-3(2H)-pyridazinone], the melting point was 183 to 184 °C.

`CC(C)(C)C(=O)Cn1ncc(-c2ccc(S(C)(=O)=O)cc2)c(-c2ccc(F)cc2)c1=O` [Example 59, 2-(3,3-Dimethyl-2-oxobutyl)-4-(4-fluorophenyl)-5-[4-(methylsulfonyl)phenyl]-3(2H)-pyridazinone] gave a melting point of 168 to 170 °C.

Consider `CS(=O)(=O)c1ccc(-c2cnn(Cc3cc4ccccc4s3)c(=O)c2-c2ccc(F)cc2)cc1` [Example 61, 2-(2-Benzo[b]thienylmethyl)-4-(4-fluorophenyl)-5-[4-(methylsulfonyl)phenyl]-3(2H)-pyridazinone], for which the melting point fell in the range of 93 to 96 °C.

Turning to `Cc1n[nH]c(=O)c(-c2ccc(F)cc2)c1-c1ccc(S(C)(=O)=O)cc1` [Example 63, 4-(4-Fluorophenyl)-5-[4-(methylsulfonyl)phenyl]-6-methyl-3(2H)-pyridazinone], the melting point is 290 °C (dec.).

Regarding `NS(=O)(=O)c1ccc(-c2cnn(CC(F)(F)F)c(=O)c2Oc2ccc(F)cc2)cc1` [Example 71, 2-(2,2,2-Trifluoroethyl)-4-(4-fluorophenoxy)-5-[4-(aminosulfonyl)phenyl]-3(2H)-pyridazinone], the melting point is 150 to 152 °C.

Regarding `CS(=O)(=O)c1ccc(-c2cnn(Cc3ccccc3)c(=O)c2Cl)cc1` [Example 78, 2-Benzyl-4-chloro-5-[4-(methylsulfonyl)phenyl]-3(2H)-pyridazinone], the melting point was in the range of 166 to 167 °C.

Turning to `Cc1ccc(-c2c(-c3ccc(S(C)(=O)=O)cc3)cnn(CC(F)(F)F)c2=O)cc1` [Example 79, 2-(2,2,2-Trifluoroethyl)-4-(4-methylphenyl)-5-[4-(methylsulfonyl)phenyl]-3(2H)-pyridazinone], the melting point lay within 154 to 156 °C.

In turn, `Cc1ccsc1-n1ncc(-c2ccc(S(C)(=O)=O)cc2)c(-c2ccc(F)cc2)c1=O` [Example 95, 2-(3-Methyl-2-thienyl)-4-(4-fluorophenyl)-5-[4-(methylsulfonyl)phenyl]-3(2H)-pyridazinone] had a melting point of 215 to 217 °C.

The compound `CS(=O)(=O)c1ccc(-c2cnn(-c3cccc(C(F)(F)F)c3)c(=O)c2-c2ccc(Cl)cc2)cc1` [Example 101, 2-(3-Trifluoromethylphenyl)-4-(4-chlorophenyl)-5-[4-(methylsulfonyl)phenyl]-3(2H)-pyridazinone] yielded a melting point of 103 to 105 °C.

Take `CS(=O)(=O)c1ccc(-c2cnn(Cc3cccc([N+](=O)[O-])c3)c(=O)c2-c2ccc(F)cc2)cc1` [Example 116, 2-(3-Nitrobenzyl)-4-(4-fluorophenyl)-5-[4-(methylsulfonyl)phenyl]-3(2H)-pyridazinone]: the melting point lay within 156 to 157 °C.

Regarding `NS(=O)(=O)c1ccc(-c2cnn(C3CC=CCC3)c(=O)c2-c2ccc(F)cc2)cc1` (centres unmarked) [Example 126], the melting point lay within 206 to 208 °C.

For the compound `CC1CCCC1n1ncc(-c2ccc(S(C)(=O)=O)cc2)c(-c2ccc(F)cc2)c1=O` (centres unmarked) [Example 131, 2-(2-Methylcyclopentyl)-4-(4-fluorophenyl)-5-[4-(methylsulfonyl)phenyl]-3(2H)-pyridazinone], the melting point fell in the range of 180 to 181 °C.

Turning to `NS(=O)(=O)c1ccc(-c2cnn(Cc3c(F)cc(F)cc3F)c(=O)c2-c2ccc(F)cc2)cc1` [Example 151, 2-(2,4,6-Trifluorobenzyl)-4-(4-fluorophenyl)-5-[4-(aminosulfonyl)phenyl]-3(2H)-pyridazinone], the melting point was 201 to 203 °C.

Take `CS(=O)(=O)c1ccc(-c2cnn(-c3ccc([N+](=O)[O-])cc3)c(=O)c2-c2ccc(F)cc2)cc1` [Example 157, 2-(4-Nitrophenyl)-4-(4-fluorophenyl)-5-[4-(methylsulfonyl)phenyl]-3(2H)-pyridazinone]: the melting point was 110 to 116 °C.

`CC(C)(C)c1ccc(-n2ncc(-c3ccc(S(C)(=O)=O)cc3)c(-c3ccc(F)cc3)c2=O)cc1` [Example 159, 2-(4-t-Butylphenyl)-4-(4-fluorophenyl)-5-[4-(methylsulfonyl)phenyl]-3(2H)-pyridazinone]: the melting point lay within 132 to 136 °C.

Compound `CS(=O)(=O)c1ccc(-c2cnn(-c3ccccc3C=O)c(=O)c2-c2ccc(F)cc2)cc1` [Example 163, 2-(2-Formylphenyl)-4-(4-fluorophenyl)-5-[4-(methylsulfonyl)phenyl]-3(2H)-pyridazinone] had a melting point of 234 to 236 °C.

Compound `Cc1cc(C)cc(-n2ncc(-c3ccc(S(C)(=O)=O)cc3)c(-c3ccc(F)cc3)c2=O)c1` [Example 170, 2-(3,5-Dimethylphenyl)-4-(4-fluorophenyl)-5-[4-(methylsulfonyl)phenyl]-3(2H)-pyridazinone] gave a melting point of 130 to 134 °C.

In turn, `CS(=O)(=O)c1ccc(-c2cnn(-c3ccc(C(F)(F)F)cc3)c(=O)c2-c2ccc(F)cc2)cc1` [Example 174, 2-(4-Trifluoromethylphenyl)-4-(4-fluorophenyl)-5-[4-(methylsulfonyl)phenyl]-3(2H)-pyridazinone] returned a melting point of 171 to 173 °C.

For `Cc1ccc(-n2ncc(-c3ccc(S(C)(=O)=O)cc3)c(-c3ccc(F)cc3)c2=O)cc1` [Example 177, 2-(4-Methylphenyl)-4-(4-fluorophenyl)-5-[4-(methylsulfonyl)phenyl]-3(2H)-pyridazinone], the melting point fell in the range of 190 to 192 °C.

Consider `CS(=O)(=O)c1ccc(-c2cnn(-c3ccsc3)c(=O)c2-c2ccc(F)cc2)cc1` [Example 179, 2-(3-Thienyl)-4-(4-fluorophenyl)-5-[4-(methylsulfonyl)phenyl]-3(2H)-pyridazinone], for which the melting point lay within 200 to 202 °C.

In turn, `COc1ccc(-n2ncc(-c3ccc(S(C)(=O)=O)cc3)c(-c3ccc(F)cc3)c2=O)cc1F` [Example 184, 2-(3-Fluoro-4-methoxyphenyl)-4-(4-fluorophenyl)-5-[4-(methylsulfonyl)phenyl]-3(2H)-pyridazinone] yielded a melting point of 97 to 101 °C.

Compound `CS(=O)(=O)c1ccc(-c2cnn(-c3ccc(S(N)(=O)=O)cc3)c(=O)c2-c2ccc(F)cc2)cc1` [Example 186, 2-[4-(Aminosulfonyl)phenyl]-4-(4-fluorophenyl)-5-[4-(methylsulfonyl)phenyl]-3(2H)-pyridazinone] registered a melting point of 213 to 216 °C.

Compound `CS(=O)(=O)c1ccc(-c2cnn(-c3ccc(F)cc3)c(=O)c2COc2ccccc2)cc1` [Example 196, 2-(4-Fluorophenyl)-4-phenoxymethyl-5-[4-(methylsulfonyl)phenyl]-3(2H)-pyridazinone] yielded a melting point of 42 to 75 °C.

`CC(C)(C)SCc1c(-c2ccc(S(C)(=O)=O)cc2)cnn(-c2ccc(F)cc2)c1=O` [Example 197, 2-(4-Fluorophenyl)-4-(t-butylthiomethyl)-5-[4-(methylsulfonyl)phenyl]-3(2H)-pyridazinone] displayed a melting point of 50 to 70 °C.

Broadly, the melting point is the temperature of the solid-liquid transition.

(Values after patent publication US20020028938A1, “Prostaglandin endoperoxide H synthase biosynthesis inhibitors” (priority 1997, published 2002).)
